Here are results for 2 compounds from patent US20240317722A1, “HETEROARYL-3-PIPERIDINEDIONE COMPOUND AND USE THEREOF” (Medshine Discovery Inc., priority 2021, published 2024).

What all share (format): cell-based
For one assay, the target named is GSPT1 (Homo sapiens, UniProt P15170+Q96SW2). The assay can be described thus: Target protein degradation in HEK293T-LgBiT_GSPT1-nHiBiT cells (HiBiT luminescence). More on the design: expressed in transfected cells. The conditions noted are these: 16 to 18 hours; for Dmax: read-out: Max. DR (maximum degradation rate). As for the experimental part:
This assay was performed to detect the degradation effect of the test compound on the target protein GSPT1 in HEK293T-LgBiT cells.
• 1. Preparation of compounds • (1). Dissolving the powder of the test compound with DMSO to 10 mM as the storage concentration, and using a pipette to manually draw 9 μL of 10 mM or 3 mM test compound to columns 1 and 13 of a LDV plate; • (2). Using multidrop Combi to add 6 μL of DMSO to columns 2-12 and 14-24; • (3). Using Bravo to dilute the test compound 3 times (3 μL+6 μL) from columns 1 to 11 and 13 to 23; • (4). According to the layout of the plate, using Echo to transfer 25 nL of compound solution (columns 1-24 of the LDV plate) to the assay plate; • (5). Using Echo to transfer 25 nL of 1 mM positive control solution to the assay plate as a 100% degradation control (i.e. LC, HPE), and to transfer 25 nL of DMSO to the assay plate as a 0% control (i.e. HC, ZPE). • 2. Cell plating • (1). Discarding the cell culture medium, and washing the cells once with DPBS; then the cells were trypsinized, counted, and used to prepare a cell suspension of 4×10^5 cells/mL; • (2). Using MultiDrop Combi to add 25 μL/well of cell suspension at medium speed to the assay plate containing the test compound; • (3). Putting the assay plate containing cells back into the incubator and culturing it at 37° C. and 5% CO2 for 16 to 18 hours.
• (1). Using MultiDrop Combi to add 25 μL/well of detection reagent (NanoGlo lysis solution+substrate+LgBit protein) to the assay plate at high speed, and shaking for 10 minutes; • (2). Centrifuging at 2000 rpm×1 min to remove bubbles; • (3). Reading the plate using Envision, US Luminescence detection method.
The following formula was used to calculate the degradation rate (DR) of the test compound: DR (%)=(RLU of vehicle control−RLU of compound)/(RLU of vehicle control−RLU of positive control)*100%, wherein the vehicle control was a blank control. The degradation rates of compounds at different concentrations were calculated in Excel, and then XLFit software was used to obtain inhibition curves and to calculate relevant parameters, including the minimum degradation rate, maximum degradation rate and DC50.

The test system of the next assay is NCI-H526. The assay is described as follows: Anti-proliferative effect in NCI-H526 (CellTiter-Glo). The following applies: NCI-H526, 3 days; for IC50: Homo sapiens, 72 h. As for the experimental part:
(§1) This assay studied the inhibitory effect of the compounds on cell proliferation by detecting the effect of the test compounds on the in vitro activity of tumor cells NCI-H1581, DMS114, NCI-H69 and NCI-H526.
(§2) The tumor cell lines were cultured in an incubator at 37° C., 5% CO2 or 0% CO2 according to the above culture conditions. The cells were periodically passaged, and cells in logarithmic growth phase were taken for plating. • 2. Cell plating • (1). Cells were stained with trypan blue and viable cells were counted.
(§3) • (3). 100 μL of cell suspension was added to each well of the culture plate, and culture medium without cells was added to the blank control well. • (4). The plate was incubated overnight in an incubator at 37° C., 5% CO2 or 0% CO2, and 100% relative humidity. • 3. Preparation of compound stock solution
(§4) Preparation of 1000× compound stock solution: Compound was dissolved in DMSO to 10 mM, then a portion was taken out and diluted to 1000 times the highest acting concentration. The diluted stock solution was dispensed for later use. • 4. Preparation of 5× compound working solution and treatment of cells with compounds. The working solutions were prepared freshly at each time for use. • (1). Preparation of 5× compound working solution: 119.4 μL of cell culture medium was added to a 96-well plate with a V-shaped bottom. 96 μL of DMSO-cell culture medium mix solution (with DMSO content of 0.5%) was added to subsequent gradient wells. 0.6 μL of the compound from the 1000× compound stock solution was added to the cell culture medium in the 96-well plate, and mixed to uniform with a pipette. A pipette was used to draw 24 μL of the compound-cell culture medium mixture into subsequent wells, and the mixture was mixed well by a pipette each time. • (2). Dosing: 25 μL of 5× compound working solution was added to the cell culture plate. 25 μL of DMSO-cell culture medium mix solution (with DMSO content of 0.5%) was added to the vehicle control and blank control. • (3). The 96-well cell plate was placed back into the incubator and cultured for 3 days. • 5. CellTiter-Glo luminescence cell viability detection
(§5) The following steps were performed according to the instruction of Promega CellTiter-Glo luminescence cell viability detection kit (Promega-G7573). • (1). The CellTiter-Glo buffer was thawed and allowed to stand to reach room temperature; • (2). CellTiter-Glo substrate was allowed to stand to reach room temperature; • (3). 10 mL of CellTiter-Glo buffer was added to CellTiter-Glo substrate in a bottle to dissolve the substrate to formulate CellTiter-Glo working solution; • (4). […] The culture plates were left at room temperature for 10 minutes to stabilize the luminescence signal; • (9). The luminous signal was detected on the 2104 En Vision plate reader. • 6. […]

A further assay has as its system NCI-H69. The assay can be described thus: Anti-proliferative effect in NCI-H69 (CellTiter-Glo). The following applies: NCI-H69, 3 days; for IC50: Homo sapiens, 72 h. As for the experimental part: as §1, §2, §3, §4, §5
A further assay relates to NCI-H1581. The assay can be described thus: Anti-proliferative effect in NCI-H1581 (CellTiter-Glo). The following applies: NCI-H1581, 3 days; for IC50: Homo sapiens, 72 h. Here is the method: as §1, §2, §3, §4, §5

Sequence of GSPT1 (P15170 whole entry): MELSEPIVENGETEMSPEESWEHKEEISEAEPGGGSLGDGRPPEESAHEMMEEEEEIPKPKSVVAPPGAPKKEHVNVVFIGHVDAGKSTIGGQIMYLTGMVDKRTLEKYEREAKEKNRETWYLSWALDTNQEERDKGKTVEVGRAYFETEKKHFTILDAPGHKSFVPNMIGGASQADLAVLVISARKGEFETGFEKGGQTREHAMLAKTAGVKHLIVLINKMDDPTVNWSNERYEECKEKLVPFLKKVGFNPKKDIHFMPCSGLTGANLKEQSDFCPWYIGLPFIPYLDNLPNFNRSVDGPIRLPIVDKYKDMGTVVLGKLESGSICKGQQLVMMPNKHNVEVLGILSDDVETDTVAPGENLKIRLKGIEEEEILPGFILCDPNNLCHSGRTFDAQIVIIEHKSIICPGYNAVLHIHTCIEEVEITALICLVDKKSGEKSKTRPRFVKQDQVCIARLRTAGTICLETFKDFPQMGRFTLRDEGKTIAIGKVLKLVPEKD
Sequence of GSPT1 (Q96SW2 whole entry): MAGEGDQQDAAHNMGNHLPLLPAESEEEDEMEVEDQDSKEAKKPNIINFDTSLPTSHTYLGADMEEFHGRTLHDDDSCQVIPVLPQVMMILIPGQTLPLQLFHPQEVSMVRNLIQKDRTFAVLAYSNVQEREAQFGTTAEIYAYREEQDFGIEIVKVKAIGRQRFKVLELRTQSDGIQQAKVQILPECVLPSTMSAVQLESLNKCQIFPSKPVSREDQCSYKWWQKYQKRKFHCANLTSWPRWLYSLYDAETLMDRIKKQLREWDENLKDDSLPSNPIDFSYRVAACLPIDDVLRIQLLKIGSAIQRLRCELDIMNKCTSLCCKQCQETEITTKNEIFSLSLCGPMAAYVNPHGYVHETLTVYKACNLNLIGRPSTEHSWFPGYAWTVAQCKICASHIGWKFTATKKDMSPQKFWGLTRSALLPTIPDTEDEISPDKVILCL
Sequence of GSPT1 (Q16531 whole entry partner): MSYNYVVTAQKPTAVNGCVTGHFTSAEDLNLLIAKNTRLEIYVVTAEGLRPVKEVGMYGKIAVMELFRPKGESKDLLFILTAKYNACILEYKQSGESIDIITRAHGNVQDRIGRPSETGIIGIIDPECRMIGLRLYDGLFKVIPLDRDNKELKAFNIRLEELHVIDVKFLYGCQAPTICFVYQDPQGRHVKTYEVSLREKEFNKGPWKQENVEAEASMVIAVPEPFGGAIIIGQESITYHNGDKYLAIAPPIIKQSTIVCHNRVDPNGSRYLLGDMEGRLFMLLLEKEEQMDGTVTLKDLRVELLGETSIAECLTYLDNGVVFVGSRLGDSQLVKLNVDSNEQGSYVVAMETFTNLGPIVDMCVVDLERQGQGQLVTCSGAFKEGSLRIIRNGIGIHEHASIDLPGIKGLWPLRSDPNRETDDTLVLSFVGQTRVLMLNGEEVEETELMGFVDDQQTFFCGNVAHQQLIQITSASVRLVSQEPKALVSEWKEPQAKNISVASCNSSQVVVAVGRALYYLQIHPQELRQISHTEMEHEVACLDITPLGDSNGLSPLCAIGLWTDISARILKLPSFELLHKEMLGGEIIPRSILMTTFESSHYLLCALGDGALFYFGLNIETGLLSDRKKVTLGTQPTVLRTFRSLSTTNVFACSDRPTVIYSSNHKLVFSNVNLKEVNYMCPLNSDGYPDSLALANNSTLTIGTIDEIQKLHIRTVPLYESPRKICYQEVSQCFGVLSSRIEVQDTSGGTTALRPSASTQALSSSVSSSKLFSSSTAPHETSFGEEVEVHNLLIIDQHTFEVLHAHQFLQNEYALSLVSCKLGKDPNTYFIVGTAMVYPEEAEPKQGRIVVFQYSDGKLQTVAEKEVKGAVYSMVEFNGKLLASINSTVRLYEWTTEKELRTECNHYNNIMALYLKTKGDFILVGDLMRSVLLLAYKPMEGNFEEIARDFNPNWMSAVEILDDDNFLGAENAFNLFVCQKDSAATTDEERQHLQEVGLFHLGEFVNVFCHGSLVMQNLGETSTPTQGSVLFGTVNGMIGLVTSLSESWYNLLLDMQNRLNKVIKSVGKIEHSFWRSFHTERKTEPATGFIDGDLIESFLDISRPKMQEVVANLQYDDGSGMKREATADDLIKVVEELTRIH

For `COCCOc1cc(NC(=O)NCc2ccc3c(C4CCC(=O)NC4=O)coc3c2)cc(Cl)c1C` (stereo not shown) [WX005], on GSPT1, it took 2.51 nM to reach half-maximal degradation (DC50) and the Dmax was found to be 100%. In the assay on NCI-H526, half-maximal inhibition (IC50) was put at 0.5 nM and the “Max. IR” value worked out at 99.17%. Moreover, in the assay on NCI-H69, the IC50 is 6.2 nM and the “Max. IR” value amounted to 68.41%. Moreover, in the assay with NCI-H1581, half-maximal inhibition (IC50) was put at 5.2 nM and the “Max. IR” value was 92.19%.

Consider `COCCOc1cc(NC(=O)NCc2ccc3c(C4CCC(=O)NC4=O)noc3c2)cc(Cl)c1C` (stereo not shown) [WX013], for which, on GSPT1, the DC50 amounted to 1.07 nM and the Dmax came to 100%. In addition, in the assay on NCI-H526, the midpoint of inhibition, the IC50, lay at 0.1 nM and the “Max. IR” value is given as 99.37%. In the assay on NCI-H69, the IC50 was 1.3 nM and the “Max. IR” value amounted to 70.53%. Moreover, in the assay on NCI-H1581, half-maximal inhibition (IC50) was put at 1.3 nM and the “Max. IR” value is reported as 88.62%.
